Laboratory results: patent publication US20240376114A1, “NUCLEAR TRANSPORT MODULATORS AND USES THEREOF” (Karyopharm Therapeutics Inc., priority 2011, published 2024)
Where two headings read alike, the source gives them in different places.

How the values were obtained:
[1] = Pharmacokinetic (PK) assay, plasma AUC; assay type: in vivo; conditions: mouse, PO
Method: Pharmacokinetics (PK) play an increasing role in drug discovery and development. Pharmacokinetics is the quantitative study of the time course of drug absorption, distribution, metabolism and/or excretion. When a drug is administered, it distributes rapidly from its administration site into the systemic blood circulation. One measure of the extent of a therapeutic agent's distribution is the area under the plasma concentration-time curve (AUC), calculated to the last measured concentration (AUCt) and extrapolated to infinity (AUCinf). AUC is thus a useful metric to quantitate drug exposure. AUC. Blood was collected from mice (N=3) to contribute to the total of 10 time points (pre-dose, 5 min, 15 min, 30 min, 1 hour, 2 hours, 4 hours, 8 hours, 12 hours and 24 hours post dose). Mice were bled on a rotating basis, each mouse contributing 3 time points to the blood collection. At the designated time points, animals were anaesthetized under isoflurane, and approximately 110 μL of blood per time point was collected via retro-orbital puncture into pre-cooled K2EDTA (anti-coagulant) tubes. Blood samples were put on wet ice and centrifuged (2000 g, 5 min at 4° C.) to obtain plasma within 30 minutes of sample collection. All samples were stored frozen at approximately −80° C. until analysis. Prior to analysis, samples were mixed with internal standard (dexamethasone) in acetonitrile, vortexed, centrifuged, and supernatant was injected for analysis. Concentration of compounds in plasma was determined using LC-MS-MS instrumentation (API 4000, Triple Quadruple with electrospray ionization; Acuity Ultra Performance Liquid Chromatography column C18, with MeOH and formic acid as organic solvents). AUC values were calculated using WinNonlin Professional 6.2 software package, non-compartmental pharmacokinetic model NCA200.

[2] = CellTiter 96 AQueous One Solution (MTS) cell proliferation assay; assay type: cell-based; conditions: human, MM.1S multiple myeloma cells; MM.1S cells, 72 h treatment; read-out: Cytotoxicity [EC50]
Text: (§1) The CellTiter 96® AQueous One Solution cell proliferation assay (Promega) was used on MM.1S multiple myeloma cell line to study the cytotoxic and cytostatic properties of the compounds. The assay is based on the cleavage of the tetrazolium salt, MTS, in the presence of an electron-coupling reagent PES (phenazine ethosulfate). The MTS tetrazolium compound is bioreduced by cells into a colored formazan product that is soluble in tissue culture medium. This conversion is presumably accomplished by NADPH or NADH produced by dehydrogenase enzymes in metabolically active cells. Assays are performed by adding a small amount of the CellTiter 96® AQueous One solution reagent directly to culture wells, incubating for 1-4 hours and then recording the absorbance at 490 nm with a 96-well plate reader.
(§2) The cells were seeded at 5×10^3 to 1.5×10^4 cells (depending on cell type) in each well of a 96-well plate in 100 μL of fresh culture medium and adherent cells were allowed to attach overnight. The stock solutions of the compounds were diluted in cell culture medium to obtain eight concentrations of each drug, ranging from 1 nM to 30 μM and DMSO at less than 1% v/v was used as a negative control. The resulting drug solutions were transferred onto the cells. After 72 h of treatment, 20 μl of CellTiter 96® AQueous reagent was added into each well of the 96-well assay plates and the plate was incubated at 37° C. for 1-4 hours in a humidified, 5% CO2 atmosphere. Then the absorbance of each well was recorded at 490 nm using a 96-well plate reader. In most cases, the assay was performed in triplicate and the results were presented as half maximal inhibitory concentration (IC50). Optical density versus compound concentration was plotted and analyzed using non-linear regression equations (IDBS XLfit) and the IC50 for each compound was calculated.

[3] = Brain to plasma (B:P) ratio determination; assay type: in vivo; conditions: brain and plasma; mouse, PO at 10 mg/kg, 2 hours post-dose
Text: The brain to plasma (B:P) ratio is one method of quantifying the relative distribution of a therapeutic agent in brain tissue to that in circulation and, as such, provides one indication of the brain penetration of a given therapeutic agent. A high brain to plasma ratio is preferred when targeting diseases localized in the central nervous system (CNS), including the brain and the cerebrospinal fluid. However, a lower brain to plasma ratio is generally preferable for non-CNS therapeutic agents to minimize brain penetration and avoid potential side effects caused by unwanted accumulation of the therapeutic agents in the brain and CNS tissue.
Brain to Plasma (B:P) Ratio. […] Following collection, brain tissue was rinsed with cold saline, dried on filter paper, weighed and snap-frozen by placing on dry ice. All samples were stored frozen at approximately −80° C. until analysis. […] Plasma samples were treated with the identical method (except homogenization step) and the concentration of compound in each matrix was calculated based on generated standard curves.

[4] = tested on: MM.1S multiple myeloma cell line; assay: CellTiter 96 AQueous One Solution (MTS) cell proliferation assay; assay type: cell-based
Text: as §1, §2

[5] = 10 mg/kg, 10 mpk, read-out: AUCInf hr * ng/mL (mouse, PO, 10 mpk)
[6] = 5 mg/kg, 5 mpk, read-out: AUCInf hr * ng/mL (mouse, PO), tested at 5 mpk
[7] = MM.1S cells, 72 h treatment, read-out: Cytotoxicity [EC50]

O=C(/C=C\n1cnc(-c2cc(C(F)(F)F)cc(C(F)(F)F)c2)n1)N1CCC1 [Compound 23, (Z)-1-(azetidin-1-yl)-3-(3-(3,5-bis (trifluoromethyl)phenyl)-1H-1,2,4-triazol-1-yl) prop-2-en-1-one]
AUC(0-inf) [1, 5]: 521 ng·h/mL
EC50 at 72 h [2]: < 1000 nM

CN(C)CC1CN(C(=O)/C=C\n2cnc(-c3cc(C(F)(F)F)cc(C(F)(F)F)c3)n2)C1 [Compound 25, (Z)-3-(3-(3,5-bis(trifluoromethyl)phenyl)-1H-1,2,4-triazol-1-yl)-1-(3-((dimethylamino)methyl)azetidin-1-yl)prop-2-en-1-one]
AUC(0-inf) [1, 5]: 2640 ng·h/mL
EC50 at 72 h [2]: < 1000 nM

NCC1(F)CN(C(=O)/C=C\n2cnc(-c3cc(C(F)(F)F)cc(C(F)(F)F)c3)n2)C1 [Compound 60, (Z)-1-(3-(aminomethyl)-3-fluoroazetidin-1-yl)-3-(3-(3,5-bis(trifluoromethyl)phenyl)-1H-1,2,4-triazol-1-yl)prop-2-en-1-one]
Kp at 2 h [3]: 13.3
AUC(0-inf) [1, 6]: 1240 ng·h/mL
EC50 at 72 h [2]: < 1000 nM

O=C(/C=C\n1cnc(-c2cc(C(F)(F)F)cc(C(F)(F)F)c2)n1)N1CC(F)(C(=O)O)C1 [Compound 62, (Z)-1-(3-(3-(3,5-bis(trifluoromethyl)phenyl)-1H-1,2,4-triazol-1-yl)acryloyl)-3-fluoroazetidine-3-carboxylic acid]
EC50 at 72 h [2]: 1000 to 10000 nM

CN(C)CC1(F)CN(C(=O)/C=C\n2cnc(-c3cc(C(F)(F)F)cc(C(F)(F)F)c3)n2)C1 [Compound 63, (Z)-3-(3-(3,5-bis(trifluoromethyl)phenyl)-1H-1,2,4-triazol-1-yl)-1-(3-((dimethylamino)methyl)-3-fluoroazetidin-1-yl)prop-2-en-1-one]
EC50 at 72 h [2]: < 1000 nM

O=C1CC(c2cc(C(F)(F)F)cc(C(F)(F)F)c2)CN1/C=C\C(=O)N1CC(F)(F)C1 (stereo not drawn) [Compound 64, (Z)-4-(3,5-bis(trifluoromethyl)phenyl)-1-(3-(3,3-difluoroazetidin-1-yl)-3-oxoprop-1-enyl)pyrrolidin-2-one]
EC50 at 72 h [2]: > 10000 nM

O=C(/C=C\n1cnc(-c2cc(C(F)(F)F)cc(C(F)(F)F)c2)n1)N1CCC(O)CC1 [Compound 66, (Z)-3-(3-(3,5-bis(trifluoromethyl)phenyl)-1H-1,2,4-triazol-1-yl)-1-(4-hydroxypiperidin-1-yl)prop-2-en-1-one]
EC50 at 72 h [2]: < 1000 nM

O=C(/C=C\n1cnc(-c2cc(C(F)(F)F)cc(C(F)(F)F)c2)n1)NNc1cnccn1 [Compound 70]
AUC(0-inf) [1, 5]: 10100 ng·h/mL
EC50 at 72 h [2]: < 1000 nM

O=C(/C=C\n1cnc(-c2cc(C(F)(F)F)cc(C(F)(F)F)c2)n1)NNc1ccccn1 [Compound 71]
Kp at 2 h [3]: 1.8
AUC(0-inf) [1, 5]: 10800 ng·h/mL
EC50 at 72 h [2]: < 1000 nM

O=C(/C=C\n1cnc(-c2cc(F)cc(C(F)(F)F)c2)n1)N1CC(F)(F)C1 [Example 2, (Z)-1-(3,3-difluoroazetidin-1-yl)-3-(3-(3-fluoro-5-(trifluoromethyl)phenyl)-1H-1,2,4-triazol-1-yl)prop-2-en-1-one]
AUC(0-inf) [1, 5]: 396 ng·h/mL
EC50 at 72 h [2]: < 1000 nM

O=C(/C=C\n1cnc(-c2cc(O)cc(C(F)(F)F)c2)n1)N1CC(F)(F)C1 [Example 3, (Z)-1-(3,3-difluoroazetidin-1-yl)-3-(3-(3-hydroxy-5-(trifluoromethyl)phenyl)-1H-1,2,4-triazol-1-yl)prop-2-en-1-one]
EC50 at 72 h [2]: < 1000 nM

O=C(/C=C\n1cnc(-c2cc(C(F)(F)F)cc(C(F)(F)F)c2)n1)N1CCCC(F)(F)C1 [Example 5, (Z)-3-(3-(3,5-bis(trifluoromethyl)phenyl)-1H-1,2,4-triazol-1-yl)-1-(3,3-difluoropiperidin-1-yl)prop-2-en-1-one]
EC50 at 72 h [2]: 1000 to 10000 nM

O=C(/C=C\n1cnc(-c2cc(C(F)(F)F)cc(C(F)(F)F)c2)n1)N1CCC(F)(F)CC1 [Example 6, (Z)-3-(3-(3,5-bis(trifluoromethyl)phenyl)-1H-1,2,4-triazol-1-yl)-1-(4,4-difluoropiperidin-1-yl)prop-2-en-1-one]
EC50 at 72 h [2]: 1000 to 10000 nM

O=C(/C=C\n1cnc(-c2cc(C(F)(F)F)cc(C(F)(F)F)c2)n1)N1CC(F)C1 [Example 7, (Z)-3-(3-(3,5-bis(trifluoromethyl)phenyl)-1H-1,2,4-triazol-1-yl)-1-(3-fluoroazetidin-1-yl)prop-2-en-1-one]
AUC(0-inf) [1, 5]: 2510 ng·h/mL
EC50 at 72 h [2]: < 1000 nM

CC1(O)CN(C(=O)/C=C\n2cnc(-c3cc(C(F)(F)F)cc(C(F)(F)F)c3)n2)C1 [Example 8, (Z)-3-(3-(3,5-bis(trifluoromethyl)phenyl)-1H-1,2,4-triazol-1-yl)-1-(3-hydroxy-3-methylazetidin-1-yl)prop-2-en-1-one]
Kp at 2 h [3]: 3.16
AUC(0-inf) [1, 6]: 9050 ng·h/mL
EC50 at 72 h [2]: < 1000 nM

O=C(/C=C\n1cnc(-c2cc(C(F)(F)F)nc(C(F)(F)F)c2)n1)N1CC(F)(F)C1 [Example 9, (Z)-3-(3-(2,6-bis(trifluoromethyl)pyridin-4-yl)-1H-1,2,4-triazol-1-yl)-1-(3,3-difluoroazetidin-1-yl)prop-2-en-1-one]
EC50 at 72 h [2]: < 1000 nM

CCN(C(=O)/C=C\n1cnc(-c2cc(C(F)(F)F)cc(C(F)(F)F)c2)n1)C(C)c1cccnc1 (stereo not drawn) [Example 10, (Z)-3-(3-(3,5-bis(trifluoromethyl)phenyl)-1H-1,2,4-triazol-1-yl)-N-ethyl-N-(1-(pyridin-3-yl)ethyl)acrylamide]
EC50 at 72 h [2]: 1000 to 10000 nM

O=C(/C=C\n1cnc(-c2cc(C(F)(F)F)cc(C(F)(F)F)c2)n1)NCc1cnco1 [Example 11, (Z)-3-(3-(3,5-bis(trifluoromethyl)phenyl)-1H-1,2,4-triazol-1-yl)-N-(oxazol-5-ylmethyl)acrylamide]
AUC(0-inf) [1, 6]: 3080 ng·h/mL
EC50 at 72 h [2]: < 1000 nM

(E)-3-(6-(3,5-bis(trifluoromethyl)phenyl)pyridin-2-yl)-1-(3,3-difluoroazetidin-1-yl)prop-2-en-1-one [Compound 15]
EC50 [4]: > 10000 nM

(Z)-3-(2-(3,5-bis(trifluoromethyl)phenyl)-1H-pyrrol-1-yl)-1-(3,3-difluoroazetidin-1-yl)prop-2-en-1-one [Compound 65]
EC50 [4, 7]: > 10000 nM

(Z)-3-(3-(3,5-bis(trifluoromethyl)phenyl)-1H-1,2,4-triazole-1-yl)-N-(1-(5-methylpyrimidine-2-yl)ethyl)acrylamide [Compound 21]
EC50 [4, 7]: 1000 to 10000 nM
